Measured values from patent US20120029187A1, “HALOALKYLSULFONANILIDE DERIVATIVE” (Nissan Chemical Industries, Ltd., priority 2009, published 2012).

Experiments:
Format in all cases: in vivo
transplanted rice = test: Test Example 1: preemergence treatment under submerged conditions, effect on crop; conditions: dose 2.52 g/a
Text: (§1) Test on the Herbicidal Effects in Preemergence Treatment on Weeds Under Submerged Conditions
(§2) Alluvial soil was put in 1/30000-are styrol cups and admixed with water so that it was submerged at a depth of 4 cm. In each cup, seeds of barnyardgrass, bulrush and ducksalad were sown together, and rice seedlings at the 2.5-leaf stage were transplanted. On the same day as the seeding, emulsifiable concentrates containing compounds of the present invention formulated in accordance with Formulation Example 2 were applied to the water surfaces at predetermined doses after diluted with water. The cups were placed in a greenhouse at 25 to 30° C. to grow the plants. Three weeks after the application, the herbicidal effects against various plants were determined on the following evaluation scale.
(§3) 5 mortality of 90% or above (nearly complete death)
(§4) 4 mortality of at least 70% and less than 90%
(§5) 3 mortality of at least 40% and less than 70%
(§6) 2 mortality of at least 20% and less than 40%
(§7) 1 mortality of at least 5% and less than 20%
(§8) 0 mortality of less than 5% (almost ineffective)
(§9) A: barnyardgrass, B: bulrush, C: ducksalad, D: large crabgrass, E: giant foxtail, F: wild oat, G: water foxtail, H: Italian ryegrass, I: velvetleaf, J: common ragweed, K: redroot pigweed, L: common lambsquater, M: posumbu knotweed, N: common chickweed, O: beadstraw, a: transplanted rice, b: corn, c: soybean, d: direct-seeded rice, e: wheat, f: sugar beet.
(§10) The doses (g/a) represents the amounts in g per 1 are (a) applied after adjustment of concentration adjustment.

beadstraw = test: Test Example 4: herbicidal effect in foliage treatment; conditions: dose 3.2 g/a, three weeks after application
Text: (§11) Test on the Herbicidal Effect in Foliage Treatment
(§12) Sterilized diluvial soil was put in plastic boxes with a length of 21 cm, a width of 13 cm and a depth of 7 cm, and seeds of barnyardgrass, large crabgrass, giant foxtail, wild oat, blackgrass, velvetleaf, common ragweed, redroot pigweed, common lambsquater, posumbu knotweed, common chickweed, corn, soybean, rice, wheat and sugar beet were sown in spots and covered with an about 1.5 cm-thick soil layer. The boxes were placed in a greenhouse at 25 to 30° C. to grow the plants. After 14 days, emulsifiable concentrates containing compounds of the present invention formulated in accordance with Formulation Example 2 were uniformly applied to the foliage at predetermined doses through a small sprayer after diluted with water. Three weeks after the application, the herbicidal effects against various plants were determined on the same evaluation scale as in Test Example 1.
as §9, §10

common chickweed [1] = test: as above; conditions: dose 3.2 g/a, three weeks after application
Text: as §11, §12, §9, §10

Italian ryegrass [2] = test: as above; conditions: dose 3.2 g/a, three weeks after application
Text: as §11, §12, §9, §10

redroot pigweed [3] = test: as above; conditions: dose 3.2 g/a, three weeks after application
Text: as §11, §12, §9, §10

large crabgrass [4] = test: as above; conditions: dose 3.2 g/a, three weeks after application
Text: as §11, §12, §9, §10

velvetleaf [5] = test: as above; conditions: dose 3.2 g/a, three weeks after application
Text: as §11, §12, §9, §10

posumbu knotweed = test: as above; conditions: dose 3.2 g/a, three weeks after application
Text: as §11, §12, §9, §10

common lambsquater [6] = test: as above; conditions: dose 3.2 g/a, three weeks after application
Text: as §11, §12, §9, §10

water foxtail [7] = test: as above; conditions: dose 3.2 g/a, three weeks after application
Text: as §11, §12, §9, §10

giant foxtail [8] = test: as above; conditions: dose 3.2 g/a, three weeks after application
Text: as §11, §12, §9, §10

barnyardgrass [9] = test: as above; conditions: dose 3.2 g/a, three weeks after application
Text: as §11, §12, §9, §10

common ragweed [10] = test: as above; conditions: dose 3.2 g/a, three weeks after application
Text: as §11, §12, §9, §10

bulrush [11] = test: Test Example 2: herbicidal effects during the vegetation period under submerged conditions; conditions: treatment during the vegetation period under submerged conditions; dose 2.52 g/a
Protocol: (§13) Test on the Herbicidal Effects on Weeds During the Vegetation Period Under Submerged Conditions
(§14) Alluvial soil was put in 1/30000-are styrol cups and admixed with water so that it was submerged at a depth of 4 cm. In each cup, seeds of barnyardgrass, bulrush and ducksalad were sown together, and the cups were placed in a greenhouse at 25 to 30° C. to grow the plants. When the barnyardgrass, bulrush and ducksalad reached the 1- or 2-leaf stage, emulsifiable concentrates containing compounds of the present invention formulated in accordance with Formulation Example 2 were applied to the water surfaces at predetermined doses after diluted with water. Three weeks after the application, the herbicidal effects against various plants were determined on the same evaluation scale as in Test Example 1.
as §9, §10

ducksalad [12] = test: as above; conditions: treatment during the vegetation period under submerged conditions; dose 2.52 g/a
Protocol: as §13, §14, §9, §10

barnyardgrass [13] = test: as above; conditions: treatment during the vegetation period under submerged conditions; dose 2.52 g/a
Protocol: as §13, §14, §9, §10

common chickweed [14] = test: Test Example 3: herbicidal effects in soil treatment; conditions: dose 3.2 g/a
Text: (§15) Test on the Herbicidal Effects in Soil Treatment
as §12, with “chickweed” for “chickweed,”, “Emulsifiable” for “The boxes were placed in a greenhouse at 25 to 30° C. to grow the plants. After 14 days, emulsifiable”, “soil surfaces” for “foliage”, “dilute” for “diluted”
as §9, §10

Italian ryegrass [15] = test: as above; conditions: dose 3.2 g/a
Text: as §15
as §12, with “chickweed” for “chickweed,”, “Emulsifiable” for “The boxes were placed in a greenhouse at 25 to 30° C. to grow the plants. After 14 days, emulsifiable”, “soil surfaces” for “foliage”, “dilute” for “diluted”
as §9, §10

redroot pigweed [16] = test: as above; conditions: dose 3.2 g/a
Text: as §15
as §12, with “chickweed” for “chickweed,”, “Emulsifiable” for “The boxes were placed in a greenhouse at 25 to 30° C. to grow the plants. After 14 days, emulsifiable”, “soil surfaces” for “foliage”, “dilute” for “diluted”
as §9, §10

large crabgrass [17] = test: as above; conditions: dose 3.2 g/a
Text: as §15
as §12, with “chickweed” for “chickweed,”, “Emulsifiable” for “The boxes were placed in a greenhouse at 25 to 30° C. to grow the plants. After 14 days, emulsifiable”, “soil surfaces” for “foliage”, “dilute” for “diluted”
as §9, §10

velvetleaf [18] = test: as above; conditions: dose 3.2 g/a
Text: as §15
as §12, with “chickweed” for “chickweed,”, “Emulsifiable” for “The boxes were placed in a greenhouse at 25 to 30° C. to grow the plants. After 14 days, emulsifiable”, “soil surfaces” for “foliage”, “dilute” for “diluted”
as §9, §10

common lambsquater [19] = test: as above; conditions: dose 3.2 g/a
Text: as §15
as §12, with “chickweed” for “chickweed,”, “Emulsifiable” for “The boxes were placed in a greenhouse at 25 to 30° C. to grow the plants. After 14 days, emulsifiable”, “soil surfaces” for “foliage”, “dilute” for “diluted”
as §9, §10

water foxtail [20] = test: as above; conditions: dose 3.2 g/a
Text: as §15
as §12, with “chickweed” for “chickweed,”, “Emulsifiable” for “The boxes were placed in a greenhouse at 25 to 30° C. to grow the plants. After 14 days, emulsifiable”, “soil surfaces” for “foliage”, “dilute” for “diluted”
as §9, §10

giant foxtail [21] = test: as above; conditions: dose 3.2 g/a
Text: as §15
as §12, with “chickweed” for “chickweed,”, “Emulsifiable” for “The boxes were placed in a greenhouse at 25 to 30° C. to grow the plants. After 14 days, emulsifiable”, “soil surfaces” for “foliage”, “dilute” for “diluted”
as §9, §10

barnyardgrass [22] = test: as above; conditions: dose 3.2 g/a
Text: as §15
as §12, with “chickweed” for “chickweed,”, “Emulsifiable” for “The boxes were placed in a greenhouse at 25 to 30° C. to grow the plants. After 14 days, emulsifiable”, “soil surfaces” for “foliage”, “dilute” for “diluted”
as §9, §10

common ragweed [23] = test: as above; conditions: dose 3.2 g/a
Text: as §15
as §12, with “chickweed” for “chickweed,”, “Emulsifiable” for “The boxes were placed in a greenhouse at 25 to 30° C. to grow the plants. After 14 days, emulsifiable”, “soil surfaces” for “foliage”, “dilute” for “diluted”
as §9, §10

bulrush [24] = test: Test Example 1: herbicidal effects in preemergence treatment under submerged conditions; conditions: dose 2.52 g/a
Text: as §1, §2, §3, §4, §5, §6, §7, §8, §9, §10

ducksalad [25] = test: as above; conditions: dose 2.52 g/a
Text: as §1, §2, §3, §4, §5, §6, §7, §8, §9, §10

barnyardgrass [26] = test: as above; conditions: dose 2.52 g/a
Text: as §1, §2, §3, §4, §5, §6, §7, §8, §9, §10

CCOC(=O)N(c1ccccc1CN1COC2(CCCC2)CC1=O)S(=O)(=O)C(F)(F)F [II-66]
a: transplanted rice, effect on crop (evaluation scale 0-5) (transplanted rice): 0 (mortality of less than 5% (almost ineffective))
O: beadstraw, herbicidal effect (beadstraw): 0 (mortality of less than 5% (almost ineffective))
N: common chickweed, herbicidal effect (common chickweed [1]): 4 (mortality of at least 70% and less than 90%)
H: Italian ryegrass, herbicidal effect (Italian ryegrass [2]): 3 (mortality of at least 40% and less than 70%)
K: redroot pigweed, herbicidal effect (redroot pigweed [3]): 0 (mortality of less than 5% (almost ineffective))
D: large crabgrass, herbicidal effect (large crabgrass [4]): 3 (mortality of at least 40% and less than 70%)
I: velvetleaf, herbicidal effect (velvetleaf [5]): 3 (mortality of at least 40% and less than 70%)
M: posumbu knotweed, herbicidal effect (posumbu knotweed): 4 (mortality of at least 70% and less than 90%)
L: common lambsquater, herbicidal effect (common lambsquater [6]): 3 (mortality of at least 40% and less than 70%)
G: water foxtail, herbicidal effect (water foxtail [7]): 5 (mortality of 90% or above (nearly complete death))
E: giant foxtail, herbicidal effect (giant foxtail [8]): 4 (mortality of at least 70% and less than 90%)
A: barnyardgrass, herbicidal effect (barnyardgrass [9]): 5 (mortality of 90% or above (nearly complete death))
J: common ragweed, herbicidal effect (common ragweed [10]): 3 (mortality of at least 40% and less than 70%)
B: bulrush, herbicidal effect (evaluation scale 0-5) (bulrush [11]): 5 (mortality of 90% or above (nearly complete death))
C: ducksalad, herbicidal effect (evaluation scale 0-5) (ducksalad [12]): 5 (mortality of 90% or above (nearly complete death))
A: barnyardgrass, herbicidal effect (evaluation scale 0-5) (barnyardgrass [13]): 5 (mortality of 90% or above (nearly complete death))
N: common chickweed, herbicidal effect (evaluation scale 0-5) (common chickweed [14]): 5 (mortality of 90% or above (nearly complete death))
H: Italian ryegrass, herbicidal effect (evaluation scale 0-5) (Italian ryegrass [15]): 5 (mortality of 90% or above (nearly complete death))
K: redroot pigweed, herbicidal effect (evaluation scale 0-5) (redroot pigweed [16]): 2 (mortality of at least 20% and less than 40%)
D: large crabgrass, herbicidal effect (evaluation scale 0-5) (large crabgrass [17]): 5 (mortality of 90% or above (nearly complete death))
I: velvetleaf, herbicidal effect (evaluation scale 0-5) (velvetleaf [18]): 4 (mortality of at least 70% and less than 90%)
L: common lambsquater, herbicidal effect (evaluation scale 0-5) (common lambsquater [19]): 0 (mortality of less than 5% (almost ineffective))
G: water foxtail, herbicidal effect (evaluation scale 0-5) (water foxtail [20]): 5 (mortality of 90% or above (nearly complete death))
E: giant foxtail, herbicidal effect (evaluation scale 0-5) (giant foxtail [21]): 5 (mortality of 90% or above (nearly complete death))
A: barnyardgrass, herbicidal effect (evaluation scale 0-5) (barnyardgrass [22]): 5 (mortality of 90% or above (nearly complete death))
J: common ragweed, herbicidal effect (evaluation scale 0-5) (common ragweed [23]): 3 (mortality of at least 40% and less than 70%)
B: bulrush, herbicidal effect (evaluation scale 0-5) (bulrush [24]): 5 (mortality of 90% or above (nearly complete death))
C: ducksalad, herbicidal effect (evaluation scale 0-5) (ducksalad [25]): 5 (mortality of 90% or above (nearly complete death))
A: barnyardgrass, herbicidal effect (evaluation scale 0-5) (barnyardgrass [26]): 5 (mortality of 90% or above (nearly complete death))
